Data taken from patent publication US20230123334A1, “AMINO LIPID COMPOUND, PREPARATION METHOD THEREFOR, AND APPLICATION THEREOF” (SHENZHEN SHENXIN BIOTECHNOLOGY CO., LTD., priority 2020, published 2023).

System: HEK293 cells
Test: Preliminary screening as DNA vectors, GFP transfection of HEK293 cells
Type: cell-based
Details: amino lipid/DOPE liposome with 75 ng plasmid DNA (psin-EGFP-IRES-Puro); number of GFP-expressing cells divided by total nuclei (Hoechst)
Summary of the method: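 Lipid + DOPE liposomes (NaOAc, pH 5.6) complexed w/ 75 ng psin-EGFP-IRES-Puro, 30 min RT; added to 3-5×10^4 HEK293/well, 37° C. Hoechst 0.2 μg/mL at 20-24 h, imaged after further 20-24 h. Efficiency = GFP+ cells / total nuclei.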

CCCCCCCCCCCCCCCCCCNc1nc(NCCCN2CCN(C)CC2)nc(SCCCCCCCCCCCCCC)n1 [S14N18 D9]
Absolute DNA transfection efficiency in HEK293 cells: 0.3%

CCCCCCCCCCCCCCCCCCNc1nc(NCC2CCN(C)CC2)nc(SCCCCCCCCCCCCCC)n1 [S14N18 D10]
Absolute DNA transfection efficiency in HEK293 cells: 0.1%

CCCCCCCCCCCCCCSc1nc(NCCN(C)C)nc(N(CCCCCCCCCCCC)CCCCCCCCCCCC)n1 [S14^2N12 D1]
Absolute DNA transfection efficiency in HEK293 cells: 0.3%

CCCCCCCCCCCCCCSc1nc(NCCN2CCOCC2)nc(N(CCCCCCCCCCCC)CCCCCCCCCCCC)n1 [S14^2N12 D2]
Absolute DNA transfection efficiency in HEK293 cells: 0.0%

CCCCCCCCCCCCCCSc1nc(NCCN2CCCC2)nc(N(CCCCCCCCCCCC)CCCCCCCCCCCC)n1 [S14^2N12 D3]
Absolute DNA transfection efficiency in HEK293 cells: 0.2%

CCCCCCCCCCCCCCSc1nc(NCCN2CCCCC2)nc(N(CCCCCCCCCCCC)CCCCCCCCCCCC)n1 [S14^2N12 D4]
Absolute DNA transfection efficiency in HEK293 cells: 0.0%

CCCCCCCCCCCCCCSc1nc(NCCN2CCN(C)CC2)nc(N(CCCCCCCCCCCC)CCCCCCCCCCCC)n1 [S14^2N12 D5]
Absolute DNA transfection efficiency in HEK293 cells: 0.0%

CCCCCCCCCCCCCCSc1nc(NCCCN(C)C)nc(N(CCCCCCCCCCCC)CCCCCCCCCCCC)n1 [S14^2N12 D6]
Absolute DNA transfection efficiency in HEK293 cells: 0.2%

CCCCCCCCCCCCCCSc1nc(NCCN(CC)CC)nc(N(CCCCCCCCCCCC)CCCCCCCCCCCC)n1 [S14^2N12 D7]
Absolute DNA transfection efficiency in HEK293 cells: 0.1%

CCCCCCCCCCCCCCSc1nc(NCCCN2CCOCC2)nc(N(CCCCCCCCCCCC)CCCCCCCCCCCC)n1 [S14^2N12 D8]
Absolute DNA transfection efficiency in HEK293 cells: 0.0%

CCCCCCCCCCCCCCSc1nc(NCCCN2CCN(C)CC2)nc(N(CCCCCCCCCCCC)CCCCCCCCCCCC)n1 [S14^2N12 D9]
Absolute DNA transfection efficiency in HEK293 cells: 0.0%

CCCCCCCCCCCCCCSc1nc(NCC2CCN(C)CC2)nc(N(CCCCCCCCCCCC)CCCCCCCCCCCC)n1 [S14^2N12 D10]
Absolute DNA transfection efficiency in HEK293 cells: 0.0%

CCCCCCCCCCCCCCCSc1nc(NCCCCCC)nc(NCCN(C)C)n1 [S15N6 D1]
Absolute DNA transfection efficiency in HEK293 cells: 21.2%

CCCCCCCCCCCCCCCSc1nc(NCCCCCC)nc(NCCN2CCOCC2)n1 [S15N6 D2]
Absolute DNA transfection efficiency in HEK293 cells: 34.1%

CCCCCCCCCCCCCCCSc1nc(NCCCCCC)nc(NCCN2CCCC2)n1 [S15N6 D3]
Absolute DNA transfection efficiency in HEK293 cells: 32.4%

CCCCCCCCCCCCCCCSc1nc(NCCCCCC)nc(NCCN2CCCCC2)n1 [S15N6 D4]
Absolute DNA transfection efficiency in HEK293 cells: 21.6%

CCCCCCCCCCCCCCCSc1nc(NCCCCCC)nc(NCCN2CCN(C)CC2)n1 [S15N6 D5]
Absolute DNA transfection efficiency in HEK293 cells: 14.9%

CCCCCCCCCCCCCCCSc1nc(NCCCCCC)nc(NCCCN(C)C)n1 [S15N6 D6]
Absolute DNA transfection efficiency in HEK293 cells: 34.2%

CCCCCCCCCCCCCCCSc1nc(NCCCCCC)nc(NCCN(CC)CC)n1 [S15N6 D7]
Absolute DNA transfection efficiency in HEK293 cells: 5.1%

CCCCCCCCCCCCCCCSc1nc(NCCCCCC)nc(NCCCN2CCOCC2)n1 [S15N6 D8]
Absolute DNA transfection efficiency in HEK293 cells: 19.8%

CCCCCCCCCCCCCCCSc1nc(NCCCCCC)nc(NCCCN2CCN(C)CC2)n1 [S15N6 D9]
Absolute DNA transfection efficiency in HEK293 cells: 15.4%

CCCCCCCCCCCCCCCSc1nc(NCCCCCC)nc(NCC2CCN(C)CC2)n1 [S15N6 D10]
Absolute DNA transfection efficiency in HEK293 cells: 26.5%

CCCCCCCCCCCCCCCSc1nc(NCCCCCCC)nc(NCCN(C)C)n1 [S15N7 D1]
Absolute DNA transfection efficiency in HEK293 cells: 18.2%

CCCCCCCCCCCCCCCSc1nc(NCCCCCCC)nc(NCCN2CCOCC2)n1 [S15N7 D2]
Absolute DNA transfection efficiency in HEK293 cells: 23.0%

CCCCCCCCCCCCCCCSc1nc(NCCCCCCC)nc(NCCN2CCCC2)n1 [S15N7 D3]
Absolute DNA transfection efficiency in HEK293 cells: 19.7%

CCCCCCCCCCCCCCCSc1nc(NCCCCCCC)nc(NCCN2CCCCC2)n1 [S15N7 D4]
Absolute DNA transfection efficiency in HEK293 cells: 8.1%

CCCCCCCCCCCCCCCSc1nc(NCCCCCCC)nc(NCCN2CCN(C)CC2)n1 [S15N7 D5]
Absolute DNA transfection efficiency in HEK293 cells: 12.9%

CCCCCCCCCCCCCCCSc1nc(NCCCCCCC)nc(NCCCN(C)C)n1 [S15N7 D6]
Absolute DNA transfection efficiency in HEK293 cells: 32.1%

CCCCCCCCCCCCCCCSc1nc(NCCCCCCC)nc(NCCN(CC)CC)n1 [S15N7 D7]
Absolute DNA transfection efficiency in HEK293 cells: 13.3%

CCCCCCCCCCCCCCCSc1nc(NCCCCCCC)nc(NCCCN2CCOCC2)n1 [S15N7 D8]
Absolute DNA transfection efficiency in HEK293 cells: 14.5%

CCCCCCCCCCCCCCCSc1nc(NCCCCCCC)nc(NCCCN2CCN(C)CC2)n1 [S15N7 D9]
Absolute DNA transfection efficiency in HEK293 cells: 17.1%

CCCCCCCCCCCCCCCSc1nc(NCCCCCCC)nc(NCC2CCN(C)CC2)n1 [S15N7 D10]
Absolute DNA transfection efficiency in HEK293 cells: 33.4%

CCCCCCCCCCCCCCCSc1nc(NCCCCCCCC)nc(NCCN(C)C)n1 [S15N8 D1]
Absolute DNA transfection efficiency in HEK293 cells: 8.9%

CCCCCCCCCCCCCCCSc1nc(NCCCCCCCC)nc(NCCN2CCOCC2)n1 [S15N8 D2]
Absolute DNA transfection efficiency in HEK293 cells: 19.3%

CCCCCCCCCCCCCCCSc1nc(NCCCCCCCC)nc(NCCN2CCCC2)n1 [S15N8 D3]
Absolute DNA transfection efficiency in HEK293 cells: 12.7%

CCCCCCCCCCCCCCCSc1nc(NCCCCCCCC)nc(NCCN2CCCCC2)n1 [S15N8 D4]
Absolute DNA transfection efficiency in HEK293 cells: 3.0%

CCCCCCCCCCCCCCCSc1nc(NCCCCCCCC)nc(NCCN2CCN(C)CC2)n1 [S15N8 D5]
Absolute DNA transfection efficiency in HEK293 cells: 17.3%

CCCCCCCCCCCCCCCSc1nc(NCCCCCCCC)nc(NCCCN(C)C)n1 [S15N8 D6]
Absolute DNA transfection efficiency in HEK293 cells: 23.9%

CCCCCCCCCCCCCCCSc1nc(NCCCCCCCC)nc(NCCN(CC)CC)n1 [S15N8 D7]
Absolute DNA transfection efficiency in HEK293 cells: 6.7%

CCCCCCCCCCCCCCCSc1nc(NCCCCCCCC)nc(NCCCN2CCOCC2)n1 [S15N8 D8]
Absolute DNA transfection efficiency in HEK293 cells: 7.9%

CCCCCCCCCCCCCCCSc1nc(NCCCCCCCC)nc(NCCCN2CCN(C)CC2)n1 [S15N8 D9]
Absolute DNA transfection efficiency in HEK293 cells: 11.6%

CCCCCCCCCCCCCCCSc1nc(NCCCCCCCC)nc(NCC2CCN(C)CC2)n1 [S15N8 D10]
Absolute DNA transfection efficiency in HEK293 cells: 19.4%

CCCCCCCCCCCCCCCSc1nc(NCCCCCCCCC)nc(NCCN(C)C)n1 [S15N9 D1]
Absolute DNA transfection efficiency in HEK293 cells: 21.3%

CCCCCCCCCCCCCCCSc1nc(NCCCCCCCCC)nc(NCCN2CCOCC2)n1 [S15N9 D2]
Absolute DNA transfection efficiency in HEK293 cells: 9.7%

CCCCCCCCCCCCCCCSc1nc(NCCCCCCCCC)nc(NCCN2CCCC2)n1 [S15N9 D3]
Absolute DNA transfection efficiency in HEK293 cells: 30.1%

CCCCCCCCCCCCCCCSc1nc(NCCCCCCCCC)nc(NCCN2CCCCC2)n1 [S15N9 D4]
Absolute DNA transfection efficiency in HEK293 cells: 4.5%

CCCCCCCCCCCCCCCSc1nc(NCCCCCCCCC)nc(NCCN2CCN(C)CC2)n1 [S15N9 D5]
Absolute DNA transfection efficiency in HEK293 cells: 17.5%
